Test results published in patent publication US20030068615A1, “Polypeptides that bind HIV gp120 and related nucleic acids, antibodies, compositions, and methods of use” (priority 1999, published 2003).
“And” between values parts separate entries of the source, which are not always exact repeats. Equal entries are not always repeated. Where two headings read alike, the source gives them in different places.

Biological target: HIV-1LAI envelope gp120 (Human immunodeficiency virus type 1 group M subtype B, UniProt P03377)
Assay type: binding
Settings: for number of radioactive decays (counts) counted: human CD4 21-mer scan, empty control 2075; for Counts per 20′ Average-background: CCR5 18-mer scan, radiolabeled HIV-1LAI gp120
[1] = Panel C, 15-mers and 18-mers of CD4, empty control 556
[2] = Panel A, 21-mers of CD4, empty control 515 and 617
[3] = CXCR4 18-mer scan, background subtracted, empty control 0
[4] = CXCR4 18-mer scan, empty control 412
[5] = Panel F, sequential alanine replacements of CD4 polypeptides, duplicate series, empty control 569
[6] = Panel D, 9-mers and 12-mers of CD4, empty control […]
[7] = Panel B, 15-mers and 18-mers of CD4, empty control 575
[8] = STRL33 18-mer scan, background subtracted, first of two count columns
[9] = STRL33 18-mer scan, background subtracted, second of two count columns
[10] = Panel E, 9-mers and 12-mers of CD4, empty control 571

SSIVYKKEGEQVEFS
COUNTS of radiolabeled gp120 retained [1]: 558 counts

SSIVYKKEGEQVEFSFPL
COUNTS of radiolabeled gp120 retained [1]: 756 counts

SSIVYKKEGEQVEFSFPLAFT
COUNTS of radiolabeled gp120 retained [2]: 28068 counts

SSQEEEQAFLQFSKV
Binding Results For Window Length (counts bound-background), 9 (STRL33 amino terminus, 9-mer starting at the first residue of the printed sequence, background subtracted): 287 counts
Binding Results For Window Length (counts bound-background), 12 (STRL33 amino terminus, 12-mer starting at the first residue of the printed sequence, background subtracted): 4455 counts
Binding Results For Window Length (counts bound-background), 15 (STRL33 amino terminus, 15-mer starting at the first residue of the printed sequence, background subtracted): 4732 counts

SSSKSWITFDLKNKEVSVKRV [human CD4 246-266]
number of radioactive decays (counts) counted: 1761 counts

STPVQPMALIVLGGVAGLLLF [human CD4 391-411]
number of radioactive decays (counts) counted: 2527 counts

SVADLLFVITLPFWAVDA [CXCR4 segment 81-98]
radioactive counts recorded in twenty minutes [3]: 253 counts
radioactive counts recorded in twenty minutes [4]: 665 counts

SVITWVVAVFASLPGIIF
Counts per 20′ Average-background (background subtracted): 46 counts per 20′

SVYTRSTGEQEISVGL [CCR5 segment 337-]
Counts per 20′ Average-background (background subtracted): 47 counts per 20′

TALLQGQSLTLTLES
COUNTS of radiolabeled gp120 retained [5]: 6931 counts and 5012 counts

TANSDTHLL
COUNTS of radiolabeled gp120 retained [6]: 554 counts

TANSDTHLLQGQ
COUNTS of radiolabeled gp120 retained [6]: 549 counts

TANSDTHLLQGQSLT
COUNTS of radiolabeled gp120 retained [7]: 513 counts

TANSDTHLLQGQSLTLTL
COUNTS of radiolabeled gp120 retained [7]: 891 counts

TCITVDRFIVVVKATKAY
radioactive counts recorded in twenty minutes [8]: 89.5 counts
radioactive counts recorded in twenty minutes [9]: 346.5 counts

TCSSHFPYSQYQFWKNFQ [CCR5 segment 177-]
Counts per 20′ Average-background (background subtracted): 367 counts per 20′

TCTVLQNQKKVEFKI
COUNTS of radiolabeled gp120 retained [1]: 510 counts

TCTVLQNQKKVEFKIDIV
COUNTS of radiolabeled gp120 retained [1]: 571 counts

TDIYLLNLAISDLFFLLT [CCR5 segment 65-82]
Counts per 20′ Average-background (background subtracted): 38 counts per 20′

TDKYRLHLSVADLLFVIT [CXCR4 segment 73-90]
radioactive counts recorded in twenty minutes [3]: 92 counts
radioactive counts recorded in twenty minutes [4]: 504 counts

TEAIAYLRACLNPVLYAF [STRL33 segment 273-290]
radioactive counts recorded in twenty minutes [8]: 604.5 counts
radioactive counts recorded in twenty minutes [9]: 480.5 counts

TEEMGSGDYDSMKEPCFR [CXCR4 segment 13-30]
radioactive counts recorded in twenty minutes [3]: 41 counts
radioactive counts recorded in twenty minutes [4]: 453 counts

TELLQGASLTLTLES
COUNTS of radiolabeled gp120 retained [5]: 4238 counts

TGLYFIGFFSGIFFIILL
Counts per 20′ Average-background (background subtracted): 80 counts per 20′

TGSGELWWQ
COUNTS of radiolabeled gp120 retained [10]: 507 counts

THALQGQSLTLTLES
COUNTS of radiolabeled gp120 retained [5]: 7683 counts and 5059 counts

THLAQGQSLTLTLES
COUNTS of radiolabeled gp120 retained [5]: 7701 counts and 5120 counts

THLLAGQSLTLTLES
COUNTS of radiolabeled gp120 retained [5]: 4578 counts and 2956 counts

THLLQAQSLTLTLES
COUNTS of radiolabeled gp120 retained [5]: 8471 counts and 6393 counts

THLLQGASLTLTLES
COUNTS of radiolabeled gp120 retained [5]: 1933 counts

THLLQGQALTLTLES
COUNTS of radiolabeled gp120 retained [5]: 8659 counts and 5151 counts

THLLQGQSL
COUNTS of radiolabeled gp120 retained [6]: 512 counts

THLLQGQSLALTLES
COUNTS of radiolabeled gp120 retained [5]: 8158 counts and 4749 counts

THLLQGQSLTLALES
COUNTS of radiolabeled gp120 retained [5]: 11699 counts and 8147 counts

THLLQGQSLTLT
COUNTS of radiolabeled gp120 retained [6]: 646 counts

THLLQGQSLTLTAES
COUNTS of radiolabeled gp120 retained [5]: 862 counts and 797 counts

THLLQGQSLTLTLAS
COUNTS of radiolabeled gp120 retained [5]: 2596 counts and 2193 counts

THLLQGQSLTLTLEA
COUNTS of radiolabeled gp120 retained [5]: 5849 counts and 7984 counts

THLLQGQSLTLTLES
COUNTS of radiolabeled gp120 retained [7]: 1874 counts
COUNTS of radiolabeled gp120 retained [5]: 7756 counts and 6545 counts and 4787 counts and 5947 counts
COUNTS of radiolabeled gp120 retained (Panel G, alanine replacements and serial truncations (Z) of CD4 polypeptides, empty control 580): 10850 counts and 9756 counts

TIMVTEAIAYLRACLNPV [STRL33 segment 269-286]
radioactive counts recorded in twenty minutes [8]: 140.5 counts
radioactive counts recorded in twenty minutes [9]: 272.5 counts

TLGFFLPLLTMIVCYSVI
radioactive counts recorded in twenty minutes [8]: 2387.5 counts
radioactive counts recorded in twenty minutes [9]: 479.5 counts

TLLHAGGFQKHRSLKIIF
radioactive counts recorded in twenty minutes [8]: 1041.5 counts
radioactive counts recorded in twenty minutes [9]: 999.5 counts

TVEKLTGSG
COUNTS of radiolabeled gp120 retained [10]: 487 counts

TVEKLTGSGELW
COUNTS of radiolabeled gp120 retained [10]: 573 counts

TVEKLTGSGELWWQA
COUNTS of radiolabeled gp120 retained [1]: 550 counts

TVILILAFFACWLPYYIG
radioactive counts recorded in twenty minutes [3]: 323 counts
radioactive counts recorded in twenty minutes [4]: 735 counts

TVLQNQKKV
COUNTS of radiolabeled gp120 retained [10]: 534 counts

TVLQNQKKVEFKIDI
COUNTS of radiolabeled gp120 retained [1]: 587 counts

TVLQNQKKVEFKIDIVVL
COUNTS of radiolabeled gp120 retained [1]: 655 counts

TVNLYSSVLILAFISLDR
radioactive counts recorded in twenty minutes [3]: 242 counts
radioactive counts recorded in twenty minutes [4]: 654 counts

TVTFGVVTSVITWVVAVF
Counts per 20′ Average-background (background subtracted): −25 counts per 20′

TVVLATQMTLGFFLPLLT [STRL33 segment 189-206]
radioactive counts recorded in twenty minutes [8]: 2327.5 counts
radioactive counts recorded in twenty minutes [9]: 2389.5 counts

TYICEVEDQ
COUNTS of radiolabeled gp120 retained [6]: 805 counts

TYICEVEDQKEE
COUNTS of radiolabeled gp120 retained [6]: 818 counts

TYICEVEDQKEEVQL
COUNTS of radiolabeled gp120 retained [7]: 956 counts

TYICEVEDQKEEVQLLVF
COUNTS of radiolabeled gp120 retained [7]: 3794 counts

VCTLPFWAYAGIHEWVFG [STRL33 segment 81-98]
radioactive counts recorded in twenty minutes [8]: 1819.5 counts
radioactive counts recorded in twenty minutes [9]: 1754.5 counts

VCYSVIIKTLLHAGGFQK [STRL33 segment 209-226]
radioactive counts recorded in twenty minutes [8]: 1334.5 counts
radioactive counts recorded in twenty minutes [9]: 1143.5 counts

VDRFIVVVKATKAYNQQA
radioactive counts recorded in twenty minutes [8]: 103.5 counts
radioactive counts recorded in twenty minutes [9]: 53.5 counts

VEDQKEEVQ
COUNTS of radiolabeled gp120 retained [6]: 521 counts

VEDQKEEVQLLV
COUNTS of radiolabeled gp120 retained [6]: 657 counts

VEDQKEEVQLLVFGL
COUNTS of radiolabeled gp120 retained [7]: 3816 counts

VEDQKEEVQLLVFGLTAN
COUNTS of radiolabeled gp120 retained [7]: 3913 counts

VEFKIDIVV
COUNTS of radiolabeled gp120 retained [10]: 548 counts

VEFKIDIVVLAF
COUNTS of radiolabeled gp120 retained [10]: 681 counts

VEFKIDIVVLAFQKA
COUNTS of radiolabeled gp120 retained [1]: 1005 counts

VEFKIDIVVLAFQKASSI
COUNTS of radiolabeled gp120 retained [1]: 819 counts

VEFKIDIVVLAFQKASSIVYK
COUNTS of radiolabeled gp120 retained [2]: 725 counts

VEFSFPLAF
COUNTS of radiolabeled gp120 retained [10]: 1064 counts

VEFSFPLAFTVE
COUNTS of radiolabeled gp120 retained [10]: 518 counts

VEFSFPLAFTVEKLT
COUNTS of radiolabeled gp120 retained [1]: 899 counts

VEFSFPLAFTVEKLTGSG
COUNTS of radiolabeled gp120 retained [1]: 533 counts

VEFSFPLAFTVEKLTGSGELW
COUNTS of radiolabeled gp120 retained [2]: 633 counts

VEKLTGSGE
COUNTS of radiolabeled gp120 retained [10]: 585 counts

VEKLTGSGELWW
COUNTS of radiolabeled gp120 retained [10]: 477 counts

VEKLTGSGELWWQAE
COUNTS of radiolabeled gp120 retained [1]: 735 counts

VFASLPGIIFTRSQKEGL [CCR5 segment 157-]
Counts per 20′ Average-background (background subtracted): 54 counts per 20′

VFGLTANSD
COUNTS of radiolabeled gp120 retained [6]: 549 counts

VFGLTANSDTHL
COUNTS of radiolabeled gp120 retained [6]: 548 counts

VFGLTANSDTHLLQG
COUNTS of radiolabeled gp120 retained [7]: 532 counts

VFGLTANSDTHLLQGQSL
COUNTS of radiolabeled gp120 retained [7]: 531 counts
